Assay results published in paper PMC11173382, “In Vitro Investigations into the Potential Drug Interactions of Pseudoginsenoside DQ Mediated by Cytochrome P450 and Human Drug Transporters” (Molecules, 2024).

How the values were obtained:
hOCT2 = biological target: T1, hOCT2 (Homo sapiens, UniProt O15244); experiment: Substrates uptake assay, S2-OCT2 cells (14C-TEA); format: in vitro ADME; details: for Transport activity of OCT2 (main text: percentage inhibition): negative control = 100%
T1 construct: host or cells: S2-OCT2
T1 sequence (O15244 1-555): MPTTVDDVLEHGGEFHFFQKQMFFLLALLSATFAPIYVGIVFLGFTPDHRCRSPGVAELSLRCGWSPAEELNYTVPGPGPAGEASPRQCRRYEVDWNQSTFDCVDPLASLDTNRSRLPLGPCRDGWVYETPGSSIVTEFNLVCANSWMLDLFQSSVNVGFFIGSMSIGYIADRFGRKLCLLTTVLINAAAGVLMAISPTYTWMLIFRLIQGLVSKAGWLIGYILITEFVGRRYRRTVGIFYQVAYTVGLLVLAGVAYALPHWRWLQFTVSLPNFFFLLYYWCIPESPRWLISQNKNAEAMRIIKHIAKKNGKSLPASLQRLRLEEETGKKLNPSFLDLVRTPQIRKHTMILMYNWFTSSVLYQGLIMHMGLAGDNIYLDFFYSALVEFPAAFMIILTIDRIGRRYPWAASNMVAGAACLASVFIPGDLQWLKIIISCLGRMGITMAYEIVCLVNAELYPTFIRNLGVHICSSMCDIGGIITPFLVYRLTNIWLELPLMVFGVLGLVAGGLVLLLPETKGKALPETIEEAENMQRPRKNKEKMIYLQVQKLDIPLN
Description: Drug transporters mediate the cellular uptake and efflux of their substrates. Therefore, cell lines overexpressing a drug transporter can be utilized to investigate inhibitors of the transporter by assessing changes in substrate uptake. For each drug transporter, we selected a well-characterized inhibitor as the positive control. Radiolabeled substrates were used to indicate the decrease in transport efficiency when the drug transporters were inhibited by PDQ or the control inhibitors.
The concentrations of the control drugs and the substrates were stated in the assay details. Working solutions of the control inhibitors, the radiolabeled substrates, and each dose of PDQ were prepared at 200 times (200×) more concentrated solutions with DMSO for further dilution.
Transporter-overexpressed cell lines. Human organic anion transporter-overexpressed cell lines MDCKII-OAT1 and S2-OAT3, human organic anion transport polypeptide-overexpressed cell lines HEK293A-OATP1B1 and HEK293A-OATP1B3, human organic cation transporter 2-overexpressed cell line S2-OCT2, and human multi-drug resistance protein MDR1 (or P-gp)-overexpressed cell line MDCKII-MDR1 were gifts from Japan Fuji Biomedical Co., Ltd. (Fuji, Shizuoka Prefecture, Japan). Breast cancer resistance protein-overexpressed vesicles (sf9-BCRP vesicle) were purchased from GenoMembrane Co., Ltd. (Yokohama, Kanagawa, Japan).
Substrates uptake assay. In this assay, we studied the inhibition of PDQ against transporters OAT1, OAT3, OCT2, OATP1B1 and OATP1B3 with MDCKII-OAT1, S2-OAT3, S2-OCT2, HEK293A-OATP1B1and HEK293A-OATP1B3 cells, respectively. The radiolabeled substrates for OAT1, OAT3, OATP1B1, OATP1B3 and OCT2 were […], respectively (Table 5). Probenecid ([…]) was the positive control inhibitor of OAT1 and OAT3, while rifampicin ([…]) served as the control drug of OATP1B1 and OATP1B3. For OCT2, we used […] cimetidine to compare with the inhibitory effect of PDQ. Two times (2×) more concentrated working solutions of the drugs and the substrate were prepared with Dulbecco’s phosphate-buffered saline (DPBS, Gibco, Grand Island, NY, USA.). Then, an equal volume of 2× drug solution and 2× radiolabeled substrate solution were mixed as the working mix. All reagents were pre-warmed to 37 °C.
The cells were digested with 0.05% trypsin/EDTA. The density of the single-cell suspension was adjusted to 2.0 × 10^5 cells/mL for S2 cells and to 1.5 × 10^5 cells/mL for MDCK II and HEK293A cells. The cell suspension was then added to the reservoirs of the 24-well plate for culture until full confluency. The medium in the wells was removed, and the wells were washed with DPBS. Then, the plate was incubated for 10 min with pre-warmed DPBS in the wells. After removing DPBS, […] of working mix was added to each well to initiate the substrate uptake process. The reaction time was 5 min for S2-OCT2 cells, while the other four types of cells were incubated with the reaction mix for 2 min. Cold DPBS was used to terminate the substrate transportation. To each well, […] NaOH ([…]) was added to lyse the cells. Then, […] cell lysate was transferred to the counting vials, and 3 mL scintillation cocktail (Aquasol-2, PerkinElmer, Waltham, MA, USA) was added. […] Each sample was replicated three times (N = 3).
In = [100 × (U − U0)/(Uc − U0)]%(3)
The results were expressed as mean ± standard deviation (SD) and analyzed with GraphPad Prism 8.0 software (CA, USA). The IC50 of PDQ was curve-fitted with the FORECAST function. Statistical significance was calculated using a two-tailed test, and a p value < 0.05 was considered as significant.

hOATP1B1 = biological target: T2, hOATP1B1 (Homo sapiens, UniProt Q9Y6L6); experiment: Substrates uptake assay, HEK293A-OATP1B1 cells (3H-ES); format: in vitro ADME; details: HEK293A-OATP1B1; 3H-ES 0.1 µM; 2 min
T2 sequence (Q9Y6L6 1-691): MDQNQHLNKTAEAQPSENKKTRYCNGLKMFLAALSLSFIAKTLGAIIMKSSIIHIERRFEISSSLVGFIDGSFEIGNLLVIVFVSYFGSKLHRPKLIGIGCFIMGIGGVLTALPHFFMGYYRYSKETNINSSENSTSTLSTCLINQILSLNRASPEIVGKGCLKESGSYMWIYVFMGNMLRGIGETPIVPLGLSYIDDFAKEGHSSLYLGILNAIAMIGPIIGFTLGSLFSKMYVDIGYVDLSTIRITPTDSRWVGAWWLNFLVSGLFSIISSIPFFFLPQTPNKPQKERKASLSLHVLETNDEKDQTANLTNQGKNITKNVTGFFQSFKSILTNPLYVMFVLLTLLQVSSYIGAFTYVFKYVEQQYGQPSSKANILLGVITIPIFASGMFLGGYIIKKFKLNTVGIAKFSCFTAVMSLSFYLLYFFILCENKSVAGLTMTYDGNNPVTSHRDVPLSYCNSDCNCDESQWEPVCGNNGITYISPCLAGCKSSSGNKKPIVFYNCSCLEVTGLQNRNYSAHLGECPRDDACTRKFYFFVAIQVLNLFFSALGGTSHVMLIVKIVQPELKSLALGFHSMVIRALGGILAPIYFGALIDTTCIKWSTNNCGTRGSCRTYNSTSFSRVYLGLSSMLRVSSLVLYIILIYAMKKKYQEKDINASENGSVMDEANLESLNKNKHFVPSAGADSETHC

## CC(C)(O)[C@@H]1CC[C@@](C)([C@H]2CC[C@]3(C)[C@@H]2[C@H](O)C[C@@H]2[C@@]4(C)CC[C@H](O)C(C)(C)[C@@H]4CC[C@]23C)O1 [PDQ, (20S,24S)-dammar-20,24-epoxy-3β, 12β, 25-triol]
hOCT2; inhibitor 0.1 μM
  DPM (14C-TEA uptake by OCT2): 994.3±112.3 DPM
  Transport activity of OCT2 (main text: percentage inhibition): 101.6±11.5%
hOCT2; inhibitor 0.3 μM
  DPM (14C-TEA uptake by OCT2): 741.3±35.0 DPM
  Transport activity of OCT2 (main text: percentage inhibition): 75.8±3.6%
hOCT2; inhibitor 1 μM
  DPM (14C-TEA uptake by OCT2): 712.3±115.3 DPM
  Transport activity of OCT2 (main text: percentage inhibition): 72.8±11.8%
hOCT2; inhibitor 3 μM
  DPM (14C-TEA uptake by OCT2): 661.7±93.5 DPM
  Transport activity of OCT2 (main text: percentage inhibition): 67.6±9.6%
hOCT2; inhibitor 10 μM
  DPM (14C-TEA uptake by OCT2): 612.0±28.7 DPM
  Transport activity of OCT2 (main text: percentage inhibition): 62.6±2.9%
hOCT2; inhibitor 30 μM
  DPM (14C-TEA uptake by OCT2): 578.0±29.5 DPM
hOATP1B1
  IC50: 13.1 µM
